Data as given in ChEMBL document CHEMBL3627710, “Mitochondrial targeted β-lapachone induces mitochondrial dysfunction and catastrophic vacuolization in cancer cells” (Bioorg Med Chem Lett, 2015).
Activity calls are given as the source filed them. No cut-off for these calls is given here.

Columns and labels:
A549 [1] = experiment: Cytotoxicity against human A549 cells assessed as decrease in cell viability after 24 hrs by Celltiter-Blue assay; format: functional, cell-based
A549 [2] = experiment: Cytotoxicity against human A549 cells assessed as vacuoles formation at 6 uM after 20 hrs by phase contrast microscopy; format: functional, cell-based
A549 [3] = experiment: Induction of apoptosis in human A549 cells assessed as viable cells by annexin-V/PI staining analysis (reference value: 97.6%); format: functional
A549 [4] = experiment: Induction of apoptosis in human A549 cells assessed as early apoptotic cells by annexin-V/PI staining analysis (reference value: 1.1%); format: functional
A549 [5] = experiment: Induction of apoptosis in human A549 cells assessed as late apoptotic cells by annexin-V/PI staining analysis (reference value: 1.0%); format: functional
A549 [6] = experiment: Induction of apoptosis in human A549 cells assessed as necrotic cells by annexin-V/PI staining analysis (reference value: 0.3%); format: functional
A549 [7] = experiment: Effect on oligomycin-induced inhibition of mitochondrial respiration in human A549 cells assessed as oxygen consumption rate by extracellular flux analyzer; format: functional, cell-based
A549 [8] = experiment: Induction of autophagy in human A549 cells assessed as increase in LC3-2 expression by western blot analysis; format: functional, cell-based
WM983B = experiment: Cytotoxicity against human WM983B cells assessed as decrease in cell viability at 2 to 10 uM after 24 hrs by Celltiter-Blue assay; format: functional, cell-based
PEO1 = experiment: Cytotoxicity against human PEO1 cells assessed as decrease in cell viability at 2 to 10 uM after 24 hrs by Celltiter-Blue assay; format: functional, cell-based
MDA-MB-231 = experiment: Cytotoxicity against human MDA-MB-231 cells assessed as decrease in cell viability at 2 to 10 uM after 24 hrs by Celltiter-Blue assay; format: functional, cell-based
A549 [9] = experiment: Cytotoxicity against human A549 cells assessed as decrease in cell viability at 10 uM for 4 hrs measured after 3 days by Celltiter-Blue assay; format: functional, cell-based
[10] = Cytotoxicity against human IMR90 cells assessed as slight decrease in cell viability at 10 uM for 4 hrs measured after 3 days by Celltiter-Blue assay; format: cell-based; conditions: imr-90, 10 µM
A549 [11] = experiment: Induction of ROS generation in human A549 cells at 6 uM for 16 hrs by DCF dye based flow cytometry; format: functional, cell-based
A549 [12] = experiment: Induction of ROS generation in human A549 cells at 6 uM for 16 hrs by MitoSox dye based flow cytometry; format: functional, cell-based
A549 [13] = experiment: Effect on mitochondrial morphology in human A549 cells assessed as onion skin-like structures of mitochondria by electron microscopy; format: functional, cell-based
A549 [14] = experiment: Effect on mitochondrial morphology in human A549 cells assessed as vacuoles formation by electron microscopy; format: functional, cell-based

CC1(C)OC2=C(CC1O)C(=O)C(=O)c1ccccc12 (stereo not given)
inhibition (A549 [1]): Dose-dependent effect | Activity (A549 [2]): inactive | Activity (A549 [3]): 89.2% | Activity (A549 [4]): 4% | Activity (A549 [5]): 5.7% | Activity (A549 [6]): 1.1% | Activity (A549 [7]): Active | Activity (A549 [8]): inactive

CC(C)C[C@@H](/C=C/[C@H](Cc1ccccc1)C(=O)N1CCC[C@H]1C(=O)N[C@H](C(=O)N[C@@H](CCCNC(=O)OCc1ccccc1)C(=O)NCCC(=O)OC1CC2=C(OC1(C)C)c1ccccc1C(=O)C2=O)C(C)C)NC(=O)OC(C)(C)C (stereo not given in full)
inhibition (A549 [1]): Dose-dependent effect | inhibition (WM983B): Active | inhibition (PEO1): Active | inhibition (MDA-MB-231): Active | inhibition (A549 [9]): Active | Activity [10]: Toxic | Activity (A549 [2]): Active | Activity (A549 [3]): 60.9% | Activity (A549 [4]): 3.9% | Activity (A549 [5]): 31.5% | Activity (A549 [6]): 3.7% | Activity (A549 [11]): Active | Activity (A549 [12]): Active | Activity (A549 [7]): inactive | Activity (A549 [13]): Active | Activity (A549 [14]): Active | Activity (A549 [8]): Active
